# Measurements from PMC10696402 (The Journal of Biological Chemistry, 2023).
# Several values for one entry are separate records, joined by “and”; a condition that tells them apart may be missing. Identical values can stand only once. Entries after “also recorded” stand apart in the source; their conditions may differ. Like-named read-outs stand apart in the source and are kept apart here.
# Legend:
# CYP3A [1] = details: monkeys coadministered quinidine; cited from earlier work
# WT CYP2C9 [2] = target: T1, WT CYP2C9 (Homo sapiens, UniProt P11712); details: dapsone 100 μM
# Procedure: Incubations were performed in phosphate buffer (100 μl; 0.1 M, pH 7.4) and contained WT or mutant CYP2C9 protein, 3 pmol/ml. […] After preincubation at 37 °C for 5 min, reactions were initiated by the addition of NADPH (1 mM final concentration) containing MgCl2 (4 mM). Following incubation at 37 °C for 30 min, reactions were terminated by the addition of 11.6 M HClO4 (1 μl). Samples were cooled on ice and then centrifuged at 5000g, 4 °C for 10 min. An aliquot (20 μl) of the supernatant fraction was injected into the HPLC column. […] The mobile phase comprised 25 mM phosphate buffer containing 0.02% triethylamine and 5% acetonitrile (phase A) and acetonitrile (phase B), delivered at a flow rate of 1 ml/min.
# The mobile phase comprised 10 mM ammonium formate (pH 3) in 5% acetonitrile (mobile phase A) and acetonitrile (mobile phase B), delivered at a flow rate of 1 ml/min. The initial mobile phase composition was 80% mobile phase A and 20% mobile phase B, which was delivered for 8 min. After this time, the proportion of mobile phase B was increased to 70% over 0.1 min, and then held for 2 min before returning to the initial conditions.
# Kinetic data are presented as the mean (± SD) of four separate experiments. Unless otherwise stated, metabolite formation followed sigmoidal kinetics, which was confirmed by comparison of goodness-of-fit parameters from fitting rate of metabolite formation versus substrate concentration data with the equations for empirical kinetic models (Michaelis–Menten, substrate inhibition, biphasic, and positive cooperativity) using the program GraphPad Prism version 7.01 (https://www.graphpad.com, GraphPad Software, Inc).
# [3] = healthy volunteers; cited from earlier work
# recombinant CYP2C9 = details: cited from earlier work
# WT CYP2C9 [4] = target: T1, WT CYP2C9; details: for Vmax, flurbiprofen 4′-hydroxylation / CLint, flurbiprofen 4′-hydroxylation: WT; for CLint, flurbiprofen 4′-hydroxylation: Vmax/Km
# Procedure: (§1) Incubations were performed in phosphate buffer (100 μl; 0.1 M, pH 7.4) and contained WT or mutant CYP2C9 protein, 3 pmol/ml. […] After preincubation at 37 °C for 5 min, reactions were initiated by the addition of NADPH (1 mM final concentration) containing MgCl2 (4 mM). […] Samples were cooled on ice and then centrifuged at 5000g, 4 °C for 10 min. An aliquot (20 μl) of the supernatant fraction was injected into the HPLC column. […] The mobile phase comprised 25 mM phosphate buffer containing 0.02% triethylamine and 5% acetonitrile (phase A) and acetonitrile (phase B), delivered at a flow rate of 1 ml/min. […] Given the favorable sensitivities of these assays, rates of metabolite formation below the lower limits of quantification may be considered negligible.
# (§2) Kinetic data are presented as the mean (± SD) of four separate experiments. […] CLint, which reflects reaction efficiency, was calculated as Vmax/Km.
# CYP2C9 Lys206Ala mutant [5] = target: T2, CYP2C9 Lys206Ala mutant (Homo sapiens, UniProt P11712, K206A); experiment: Diclofenac 4′-hydroxylation kinetics, Lys206Ala mutant; details: for CLint, diclofenac 4′-hydroxylation: Vmax/Km; for Km at 7 min: human, pH 7.4, Km, diclofenac 4′-hydroxylation
# Procedure: (§3) Mutations were confirmed by DNA sequencing using an Applied Biosystems 3130xl Genetic Analyzer with BigDye Terminator v3.1 Chemistry (Applied Biosystems).
# (§4) WT and mutant CYP2C9 proteins and NADPH-CPR were coexpressed according to Boye et al. ([61]). Plasmids were transformed into E. coli DH5R competent cells and single isolated colonies were grown by shaking at 37 °C overnight in Luria-Bertani medium containing ampicillin (100 mg/L) and chloramphenicol (50 mg/L). Overnight cultures of each clone were diluted 1:100 in Terrific broth containing 0.2% Bacto Peptone (w/v), ampicillin (100 mg/L), and chloramphenicol (50 mg/L). Cells were grown at 37 °C in a rotary shaker until the absorbance at 600 nm reached 0.7, when δ-aminolevulinic acid and isopropyl-α-D-thiogalactopyroside were added to final concentrations of 0.5 mM and 1 mM, respectively. Cultures were then grown at 30 °C with shaking at 200 rpm for 24 h. Bacterial cells were harvested, and membrane fractions were prepared as described by Gillam et al. ([62]). The P450 content of bacterial membranes was quantified spectrophotometrically using established methods ([63], [64], [65]). CPR content was measured spectrophotometrically as the NADPH-cytochrome c reductase activity ([66]).
# (§5) Incubations were performed in phosphate buffer (100 μl; 0.1 M, pH 7.4) and contained WT or mutant CYP2C9 protein, 3 pmol/ml. […] After preincubation at 37 °C for 5 min, reactions were initiated by the addition of NADPH (1 mM final concentration) containing MgCl2 (4 mM). Following incubation at 37 °C for 30 min, reactions were terminated by the addition of 11.6 M HClO4 (1 μl). Samples were cooled on ice and then centrifuged at 5000g, 4 °C for 10 min. An aliquot (20 μl) of the supernatant fraction was injected into the HPLC column. […] The mobile phase comprised 25 mM phosphate buffer containing 0.02% triethylamine and 5% acetonitrile (phase A) and acetonitrile (phase B), delivered at a flow rate of 1 ml/min. […] Given the favorable sensitivities of these assays, rates of metabolite formation below the lower limits of quantification may be considered negligible.
# (§6) The mobile phase comprised 10 mM ammonium formate (pH 3) in 5% acetonitrile (mobile phase A) and acetonitrile (mobile phase B) delivered at a flow rate of 1 ml/min.
# as §2
# WT CYP2C9 [6] = target: T1, WT CYP2C9; experiment: Diclofenac 4′-hydroxylation kinetics, recombinant WT CYP2C9; details: for CLint, diclofenac 4′-hydroxylation: Vmax/Km; for Km at 7 min: human, pH 7.4, Km, diclofenac 4′-hydroxylation
# Procedure: as §5, §6
# Kinetic data are presented as the mean (± SD) of four separate experiments. Unless otherwise stated, metabolite formation followed sigmoidal kinetics, which was confirmed by comparison of goodness-of-fit parameters from fitting rate of metabolite formation versus substrate concentration data with the equations for empirical kinetic models (Michaelis–Menten, substrate inhibition, biphasic, and positive cooperativity) using the program GraphPad Prism version 7.01 (https://www.graphpad.com, GraphPad Software, Inc). […] CLint, which reflects reaction efficiency, was calculated as Vmax/Km.
# [7] = test system: CYP2C9 Phe114 substituted with Ile and Leu; details: cited from earlier work
# [8] = test system: CYP2C9 Phe114 substituted with Ile and Leu; details: Phe114Ile and Phe114Leu vs WT; cited from earlier work
# CYP3A [9] = details: semisimultaneous administration of efavirenz; cited from earlier work
# CYP3A4 = test system: CYP3A4; set-up: method as in PMID 19752211; details: coadministration of gefitinib, CYP3A4-humanized mice; cited from earlier work
# CYP2C9 Lys206Ala mutant [10] = target: T2, CYP2C9 Lys206Ala mutant; details: for Vmax, flurbiprofen 4′-hydroxylation / CLint, flurbiprofen 4′-hydroxylation: Lys206Ala; for CLint, flurbiprofen 4′-hydroxylation: Vmax/Km
# Procedure: as §3, §4, §5, §2
# CYP2C9 = details: cited from earlier work
# CYP2C9 Lys206Ala mutant [11] = target: T2, CYP2C9 Lys206Ala mutant; experiment: in vitro; details: pH 7.4, Km, flurbiprofen 4′-hydroxylation
# Procedure: as §3, §4, §5, §2
# WT CYP2C9 [12] = target: T1, WT CYP2C9; experiment: in vitro; details: pH 7.4, Km, flurbiprofen 4′-hydroxylation
# Procedure: as §1, §2
# CYP2C9 homology model = details: homology model based on rabbit CYP2C5 crystal structure; cited from earlier work
# [13] = Lys206Ala vs WT CYP2C9, − dapsone
compound,measurement,setting,value
C=C[C@H]1C[N@@]2CC[C@H]1C[C@@H]2[C@@H](O)c1ccnc2ccc(OC)cc12 [quinidine],decrease in steady-state plasma concentrations of diclofenac,CYP3A [1],approximately 50%
Nc1ccc(S(=O)(=O)c2ccc(N)cc2)cc1 [dapsone],decrease in the Km for naproxen demethylation by dapsone,WT CYP2C9 [2],70%
same,increase in Vmax of naproxen demethylation by dapsone,WT CYP2C9 [2],4.8 fold
same,increase in catalytic efficiency (CLint) of naproxen O-demethylation by dapsone,WT CYP2C9 [2],16.5 fold
same,increase in flurbiprofen exposure on coadministration of dapsone,[3],10%
same,increase in Vmax of flurbiprofen 4′-hydroxylation by dapsone,"recombinant CYP2C9; WT CYP2C9, earlier study",~60%
same,dapsone concentration giving maximum activation,"recombinant CYP2C9; flurbiprofen 4′-hydroxylation, naproxen O-demethylation, piroxicam 5′-hydroxylation, confirmed here with naproxen (data not shown)",100 µM
same,effect of dapsone on Vmax of flurbiprofen 4′-hydroxylation,"WT CYP2C9 [4]; WT CYP2C9, dapsone 100 μM",unaffected; also recorded: without significantly affecting
same,increase in catalytic efficiency (CLint) of flurbiprofen 4′-hydroxylation by dapsone,"WT CYP2C9 [4]; WT CYP2C9, dapsone 100 μM",2.3 fold
same,reduction in the Km for flurbiprofen 4′-hydroxylation by dapsone,"WT CYP2C9 [4]; WT CYP2C9, dapsone 100 μM",~60%
"O=C(O)Cc1ccccc1Nc1c(Cl)cccc1Cl [Diclofenac, diclofenac]","Vmax, diclofenac 4′-hydroxylation",CYP2C9 Lys206Ala mutant [5]; + dapsone 100 μM,4.41 ± 0.12 pmol/min/pmol P450
same,"CLint, diclofenac 4′-hydroxylation",CYP2C9 Lys206Ala mutant [5]; + dapsone 100 μM,1.81 ± 0.07 μL/min/pmol P450
same,Km at 7 min,CYP2C9 Lys206Ala mutant [5]; + dapsone 100 μM,2.45 ± 0.13 µM
same,Km at 7 min,CYP2C9 Lys206Ala mutant [5]; − dapsone,4.05 ± 0.35 µM
same,"Vmax, diclofenac 4′-hydroxylation",CYP2C9 Lys206Ala mutant [5]; − dapsone,6.53 ± 0.19 pmol/min/pmol P450
same,"CLint, diclofenac 4′-hydroxylation",CYP2C9 Lys206Ala mutant [5]; − dapsone,1.64 ± 0.10 μL/min/pmol P450
same,"Vmax, diclofenac 4′-hydroxylation",WT CYP2C9 [6]; + dapsone 100 μM,3.19 ± 0.09 pmol/min/pmol P450
same,"CLint, diclofenac 4′-hydroxylation",WT CYP2C9 [6]; + dapsone 100 μM,1.99 ± 0.17 μL/min/pmol P450
same,Km at 7 min,WT CYP2C9 [6]; + dapsone 100 μM,1.6 ± 0.15 µM
same,Km at 7 min,WT CYP2C9 [6]; − dapsone,2.18 ± 0.16 µM
same,"Vmax, diclofenac 4′-hydroxylation",WT CYP2C9 [6]; − dapsone,5.20 ± 0.13 pmol/min/pmol P450
same,"CLint, diclofenac 4′-hydroxylation",WT CYP2C9 [6]; − dapsone,2.39 ± 0.16 μL/min/pmol P450
same,reduction of CLint for diclofenac 4′-hydroxylation (abolished or reduced),[7],≥ 89%
CC(=O)C[C@@H](c1ccccc1)c1c(O)c2ccccc2oc1=O [S-warfarin],reduction of CLint for S-warfarin 7-hydroxylation (abolished or reduced),[8],≥ 89%
O=C1Nc2ccc(Cl)cc2[C@@](C#CC2CC2)(C(F)(F)F)O1 [efavirenz],increase in apparent oral clearance of midazolam,CYP3A [9],70%
COc1cc2ncnc(Nc3ccc(F)c(Cl)c3)c2cc1OCCCN1CCOCC1 [gefitinib],effect on triazolam exposure,CYP3A4,significantly reduce
"C[C@H](C(=O)O)c1ccc(-c2ccccc2)c(F)c1 [Flurbiprofen, S-flurbiprofen]","Km for flurbiprofen 4′-hydroxylation, higher than WT",CYP2C9 Lys206Ala mutant [10]; [13],30%
same,"Vmax for flurbiprofen 4′-hydroxylation, lower than WT",CYP2C9 Lys206Ala mutant [10]; [13],37%
same,"intrinsic clearance (CLint) of flurbiprofen 4′-hydroxylation, lower than WT",CYP2C9 Lys206Ala mutant [10]; [13],approximately 50%
same,"Vmax, flurbiprofen 4′-hydroxylation",CYP2C9 Lys206Ala mutant [10]; + dapsone 100 μM,4.27 ± 0.11 pmol/min/pmol P450
same,"CLint, flurbiprofen 4′-hydroxylation",CYP2C9 Lys206Ala mutant [10]; + dapsone 100 μM,0.66 ± 0.03 μL/min/pmol P450
same,"Vmax, flurbiprofen 4′-hydroxylation",CYP2C9 Lys206Ala mutant [10]; − dapsone,3.21 ± 0.14 pmol/min/pmol P450
same,"CLint, flurbiprofen 4′-hydroxylation",CYP2C9 Lys206Ala mutant [10]; − dapsone,0.20 ± 0.01 μL/min/pmol P450
same,shift of the 4′-proton of flurbiprofen nearer to the heme Fe in the presence of dapsone,CYP2C9; T1 relaxation rates by NMR,0.9 Å
same,increase in binding affinity of flurbiprofen in the presence of dapsone,CYP2C9,approximately 60%
same,"Vmax, flurbiprofen 4′-hydroxylation",WT CYP2C9 [4]; + dapsone 100 μM,5.30 ± 0.09 pmol/min/pmol P450
same,"CLint, flurbiprofen 4′-hydroxylation",WT CYP2C9 [4]; + dapsone 100 μM,0.946 ± 0.033 μL/min/pmol P450
same,"CLint, flurbiprofen 4′-hydroxylation",WT CYP2C9 [4]; − dapsone,0.407 ± 0.01 μL/min/pmol P450
same,"Vmax, flurbiprofen 4′-hydroxylation","WT CYP2C9 [4]; − dapsone, mean ± SD",5.05 pmol/min/pmol P450 and 5.05 ± 0.08 pmol/min/pmol P450
same,Km at 30 min,CYP2C9 Lys206Ala mutant [11]; + dapsone 100 μM,6.6 ± 0.3 µM
same,Km at 30 min,CYP2C9 Lys206Ala mutant [11]; − dapsone,16.2 ± 0.6 µM
same,Km at 30 min,WT CYP2C9 [12]; + dapsone 100 μM,5.6 ± 0.31 µM
same,Km at 30 min,"WT CYP2C9 [12]; − dapsone, mean ± SD, four experiments",12.4 ± 0.44 µM
same,estimate of the shift in the SOM–heme Fe distance of flurbiprofen with dapsone,CYP2C9 homology model,0.5 Å
